Results as given in PMC4865820, “Branched Peptide, B2088, Disrupts the Supramolecular Organization of Lipopolysaccharides and Sensitizes the Gram-negative Bacteria” (Scientific Reports, 2016).
Marks after values point to notes of the source that are not given here. Positions of bridges follow the written chain, without caps; N, C: chain ends. Non-standard residues stand in square brackets, D forms with d. Residues, ends and D or L forms follow the SMILES beside them. Chains are numbered I, II in the order given. *: point of attachment. X1 = CC[C@H](C)CCCCC(=O)*; Dab = NCC[C@H](N)C(=O)O

Key:
P. aeruginosa ATCC 9027 = assay: Mice model of infectious keratitis; format: in vivo, C57BL6 mice; conditions: for Corneal bacterial burden: 0.15% gatifloxacin or 0.05% B2088 alone
Procedure: The marked synergism between B2088 and gatifloxacin in the mammalian cell culture model prompted us to investigate the efficacy of the combinations in vivo. A mouse model of keratitis was used to examine the efficacy of peptide-antibiotics combinations. After infection of the cornea with P. aeruginosa ATCC 9027 strains, mice were treated with gatifloxacin (0.15% w/v) or B2088 (0.05%) alone as well as gatifloxacin (0.15%) in combination with B2088 (0.05% w/v). […] (Fig. 7c,d and Supplementary Fig. S3).
Wild type C57BL6 (6–8 weeks old and weighs about 20-30 gram) female mice purchased from National University of Singapore were used for this study. P. aeruginosa ATCC 9027 was grown overnight in TSA (Tryptic Soy Agar) at 37 °C. Concentration of 3 × 10^8 bacterial stock was prepared for mice corneal infection with United States Phosphate Buffer (USP) by resuspending few colonies from the overnight cultured TSA plates.
Healthy mice with good corneal clarity were chosen for this study through careful monitoring with slit-lamp biomicroscopy. A total of 60 mice were used for this study (n = 12 for 5 groups) at different time points (day1, day2, day3 post treatment). The animals were anesthetized subcutaneously by 0.2 ml of ketamine (100 mg/ml) and 0.1 ml of xylazil (20 mg/ml) in 0.7 ml of normal saline (0.08 ml/mice). […] Topical application of bacteria suspension (10 μl) was applied to the scratched cornea. All the animals had been treated with the antibiotics or peptide/antibiotics combinations (3 times/day) started from day1 post infection.
At post treatment day1, day 2 and day 3, four animals from each group were euthanized. The infected corneas was dissected and processed for colony counting. Single individual cornea from different groups was homogenized in sterile 0.9% NaCl containing 0.25% BSA and diluted serially (10^1 to 10^2 fold dilution), plated in duplicates on TSA plates and incubated for 48 h at 37 °C. The number of viable bacteria was enumerated as before.

[1] = system: LPS (E. coli serotype 055:B5); assay: BODIPY TR cadaverine (BC) displacement assay with LPS; format: binding; conditions: 5 mM HEPES pH 7.4, duplicates; for ED50 (50% displacement of BC dye from LPS; also called BC50): fluorescence ex 580/em 620 nm, with respect to PMB; for EC50: no unit in table, ED50 values in μM, read-out: BC50 (LPS binding)
Summary of the method: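 Peptides (0.02–25.6 μM, two-fold dilutions) mixed 1:1 with BODIPY TR cadaverine:LPS (E. coli 055:B5) mixture in 5 mM HEPES pH 7.4; fluorescence at 580/620 nm. Displacement normalized to polymyxin B (Fmax) and probe:LPS alone (F0); ED50 from curve fit, duplicates.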

P. aeruginosa DR4877/07 = format: cell-based; conditions: for Fractional inhibitory concentration of peptide/PMB, combination with Chloarm / Fractional inhibitory concentration of peptide/PMB, combination with Erythro / Fractional inhibitory concentration of peptide/PMB, combination with Levo / Fractional inhibitory concentration of peptide/PMB, combination with Tobra: first number in parenthesis; for Fold decrease in the MIC of antibiotics at sub-lethal/sub-inhibitory concentrations of B2088: multidrug resistant P. aeruginosa 4877; for Fractional inhibitory concentration of antibiotic, Chloarm combination / Fractional inhibitory concentration of antibiotic, Erythro combination / Fractional inhibitory concentration of antibiotic, Levo combination / Fractional inhibitory concentration of antibiotic, Tobra combination: second number in parenthesis; for FICI of B2088-antibiotic combination: lowest FICI reported, two independent duplicates
Summary of the method: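 Checkerboard combinations of peptide and antibiotic, each 2-fold diluted up to 1× MIC in MHB, were tested against ~10^6 CFU/ml final inoculum. Plates were incubated 24 h at 37 °C, with growth read at OD600. FICI was the sum of the combination-to-alone MIC ratios for each agent, and the lowest FICI from duplicate experiments was reported.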

K. pneumonia 4299 = assay: Checkerboard assay; format: cell-based, K. pneumoniae; conditions: for Fractional inhibitory concentration of B2088 used for FICI calculation: first number in parenthesis, in combination with the labelled antibiotic; for Fractional inhibitory concentration of antibiotic used for FICI calculation: second number in parenthesis, in combination with B2088
Procedure: (§1) The synergism between peptides with conventional antibiotics was evaluated using checkerboard assays. For a comparison polymyxin B (PMB) was also tested against each antibiotic. From their stock solutions, two-fold dilutions of each antibiotic and peptide to 1× MIC were prepared in MHB. 50 μl of each peptide concentration was added into the wells of a 96-well polystyrene plates (SPL Life Sciences Co. Ltd, Korea) in a horizontal orientation and the same volume of each antibiotic concentration were then added in a vertical orientation. Bacterial suspensions were prepared in MHB to yield final cell density of ~10^6 CFU/ml and 100 μl of bacterial suspension was mixed with each peptide-antibiotic combinations. This procedure was repeated for wells containing 200 μl of peptide alone and 200 μl of antibiotic alone in various concentrations. The positive and negative controls contained 200 μl of inoculum and MHB alone respectively. The plates were incubated at 37 °C for 24 hours and the optical density at 600 nm (OD600) was monitored as before. Fractional inhibitory concentration index (FICI) for all antibiotic- peptide combinations was calculated through the summation of (MIC of peptide in the combination/ MIC of peptide alone) and (MIC of antibiotics in combination/MIC of antibiotic alone). The experiments were performed in two independent duplicates and the combinations that gave the lowest FICI values was reported.

K. pneumonia 07955 = assay: Checkerboard assay; format: cell-based, K. pneumoniae; conditions: for Fractional inhibitory concentration of B2088 used for FICI calculation: first number in parenthesis, in combination with the labelled antibiotic; for Fractional inhibitory concentration of antibiotic used for FICI calculation: second number in parenthesis, in combination with B2088
Procedure: as §1

[2] = MIC of B2088 6.25 μg/ml, MHB, ~10^6 CFU/ml, 37 °C, 24 h

SMILES | Corneal bacterial burden (P. aeruginosa ATCC 9027) | ED50 (50% displacement of BC dye from LPS; also called BC50) [1] [nM] | EC50 [1] [µM] | Fractional inhibitory concentration of peptide/PMB, combination with Chloarm (P. aeruginosa DR4877/07) | Fractional inhibitory concentration of peptide/PMB, combination with Erythro (P. aeruginosa DR4877/07) | Fractional inhibitory concentration of peptide/PMB, combination with Levo (P. aeruginosa DR4877/07) | Fractional inhibitory concentration of peptide/PMB, combination with Tobra (P. aeruginosa DR4877/07) | Fold decrease in the MIC of antibiotics at sub-lethal/sub-inhibitory concentrations of B2088 (P. aeruginosa DR4877/07) | Fractional inhibitory concentration of antibiotic, Chloarm combination (P. aeruginosa DR4877/07) | Fractional inhibitory concentration of antibiotic, Erythro combination (P. aeruginosa DR4877/07) | Fractional inhibitory concentration of antibiotic, Levo combination (P. aeruginosa DR4877/07) | Fractional inhibitory concentration of antibiotic, Tobra combination (P. aeruginosa DR4877/07) | FICI of polymyxin B-antibiotic combination (P. aeruginosa DR4877/07) | MIC of antibiotics in the presence of ¼× sub-MIC of B2088 (P. aeruginosa DR4877/07; [2]) [µg/mL] | MIC of antibiotics in the presence of ½× sub-MIC of B2088 (P. aeruginosa DR4877/07; [2]) [µg/mL] | FICI of B2088-antibiotic combination (P. aeruginosa DR4877/07) | Fractional Inhibitory Concentration Index of B2088 with the antibiotic (K. pneumonia 4299) | Fractional inhibitory concentration of B2088 used for FICI calculation (K. pneumonia 4299) | Fractional inhibitory concentration of antibiotic used for FICI calculation (K. pneumonia 4299) | Fractional Inhibitory Concentration Index of B2088 with the antibiotic (K. pneumonia 07955) | further results
CC(C)[C@H](NC(=O)[C@H](CCCCN)NC(=O)[C@H](CCCNC(=N)N)NC(=O)CNC(=O)[C@@H](N)CCCNC(=N)N)C(=O)N[C@H](C(=O)N[C@@H](CCCNC(=N)N)C(=O)N[C@@H](CCCNC(=N)N)C(=O)NCCCC[C@H](NC(=O)[C@H](CCCNC(=N)N)NC(=O)[C@H](CCCNC(=N)N)NC(=O)[C@@H](NC(=O)[C@@H](NC(=O)[C@H](CCCCN)NC(=O)[C@H](CCCNC(=N)N)NC(=O)CNC(=O)[C@@H](N)CCCNC(=N)N)C(C)C)C(C)C)C(=O)N[C@@H](CCCCN)C(=O)O)C(C)C [B2088] (I: H-RGRKVVRRKK-OH / II: H-RGRKVVRR; amide I:9-II:C; N-terminus and C-terminus assumed) | increased bacterial burden | 1920 ± 30 | 1.9 ± 0.1 | (0.25,0.25) | (0.5,0.5) ^‡ | (0.5,0.5) | (0.25,0.25) | 2-8 fold | (0.25,0.25) | (0.5,0.5) ^‡ | (0.5,0.5) | (0.25,0.25) |  |  |  |  |  |  |  |  | Reduction of antibiotic use in the presence of B2088 (P. aeruginosa ATCC 9027; 0.05% B2088 with gatifloxacin): about 50%
COc1c(N2CCNC(C)C2)c(F)cc2c(=O)c(C(=O)O)cn(C3CC3)c12 (stereo not drawn) [Gatifloxacin] | increased bacterial burden |  |  |  |  |  |  |  |  |  |  |  | 0.63 | 15.6 | 7.8 | 0.63 | 0.56 | 0.06 | 0.5 | 0.63 | Corneal clarity and bacterial load (P. aeruginosa ATCC 9027; topical 0.3% gatifloxacin, 3 times/day, vs PBS-treated mice): clear cornea and less bacterial load; MIC of antibiotics in the presence of ⅛× sub-MIC of B2088 (P. aeruginosa DR4877/07; [2]): 15.6 µg/mL; Fractional inhibitory concentration of B2088 used for FICI calculation (K. pneumonia 07955): 0.13; Fractional inhibitory concentration of antibiotic used for FICI calculation (K. pneumonia 07955): 0.5
CC[C@H](C)CCCCC(=O)N[C@@H](CCN)C(=O)N[C@H](C(=O)N[C@@H](CCN)C(=O)N[C@H]1CCNC(=O)[C@H]([C@@H](C)O)NC(=O)[C@H](CCN)NC(=O)[C@H](CCN)NC(=O)[C@H](CC(C)C)NC(=O)[C@@H](Cc2ccccc2)NC(=O)[C@H](CCN)NC1=O)[C@@H](C)O [Polymyxin B, polymyxin B, reference compound] (X1-[Dab]T[Dab][Dab][Dab][dF]L[Dab][Dab]T; lactam 4-C (inferred); N-terminus assumed) |  | 1560 ± 20 | 1.56 ± 0.02 | 0.125 | 0.25 | 0.5 | (0.5,0.5) |  | 0.5 | 0.5 | 0.25 | (0.5,0.5) |  |  |  |  |  |  |  |  | Fractional Inhibitory Concentration Index with Chloarm (P. aeruginosa DR4877/07; peptide + chloramphenicol): 0.63; Fractional Inhibitory Concentration Index with Erythro (P. aeruginosa DR4877/07; peptide + erythromycin): 0.75; Fractional Inhibitory Concentration Index with Levo (P. aeruginosa DR4877/07; peptide + levofloxacin): 0.75; Fractional Inhibitory Concentration Index with Tobra (P. aeruginosa DR4877/07; peptide + tobramycin): 1.0
NC[C@H]1O[C@H](O[C@H]2[C@H](O)[C@@H](O[C@H]3O[C@H](CO)[C@@H](O)[C@H](N)[C@H]3O)[C@H](N)C[C@@H]2N)[C@H](N)C[C@@H]1O [Tobramycin] |  |  |  |  |  |  |  | 4 fold |  |  |  |  | 1.0 | 200 | 200 | 0.5 | 0.25 | (0.125,0.125) | (0.125,0.125) | 0.75 | Fractional inhibitory concentration of B2088 used for FICI calculation (K. pneumonia 07955): 0.5; Fractional inhibitory concentration of antibiotic used for FICI calculation (K. pneumonia 07955): 0.25
